Laboratory results published in ChEMBL document CHEMBL1201862, “PubChem BioAssay data set” (2004).
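In this assay, cells in 96-well plates receive the compound at five concentrations for 48 hours. Endpoints are linearly interpolated between the surrounding concentrations. GI50 = concentration required for 50% inhibition of growth.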 Activity calls are given as the source filed them. No stated cut-off is given here; in the data, active = GI50 up to about 1.1 µM and inactive = higher.

Assays:
Test in all cases: inhibition of tumour cell growth, NCI panel, 48 h
[1] = system: BT-549
[2] = system: DU-145
[3] = system: COLO 205
[4] = system: NCI-H522
[5] = system: Hs-578T
[6] = system: SK-MEL-2
[7] = system: CAKI-1
[8] = system: OVCAR-5
[9] = system: IGROV-1
[10] = system: HOP-92
[11] = system: OVCAR-3
[12] = system: HCT-116
[13] = system: SK-MEL-28
[14] = system: A498
[15] = system: MDA-N
[16] = system: SNB-19
[17] = system: Malme-3M
[18] = system: K562
[19] = system: SR

Compound | GI50 [1] | GI50 [2] | GI50 [3] | GI50 [4] | GI50 [5] | GI50 [6] | GI50 [7] | GI50 [8] | GI50 [9] | GI50 [10] | GI50 [11] | GI50 [12] | GI50 [13] | GI50 [14] | GI50 [15] | GI50 [16] | GI50 [17] | GI50 [18] | GI50 [19]
COc1cc(OCCN(C)C)c2[nH]c(C(=O)N3CC(CCl)c4c3cc(N)c3ccccc43)cc2c1 (centres undefined) | 0.0268 µM (active) | < 0.01 µM (active) | < 0.01 µM (active) | < 0.01 µM (active) | < 0.01 µM (active) | < 0.01 µM (active) | < 0.01 µM (active) | < 0.01 µM (active) | < 0.01 µM (active) | < 0.01 µM (active) | < 0.01 µM (active) | < 0.01 µM (active) | < 0.01 µM (active) | < 0.01 µM (active) | < 0.01 µM (active) | < 0.01 µM (active) | < 0.01 µM (active) |  | 
CC1(C)Oc2ccc3c(=O)c(-c4ccccc4)c(-c4ccccc4)oc3c2C1C(=O)O (centres undefined) | > 100 µM (inactive) | > 100 µM (inactive) | > 100 µM (inactive) | > 100 µM (inactive) | 64.9 µM (inactive) | > 100 µM (inactive) | > 100 µM (inactive) | > 100 µM (inactive) | > 100 µM (inactive) |  | > 100 µM (inactive) | > 100 µM (inactive) |  | > 100 µM (inactive) | > 100 µM (inactive) |  | > 100 µM (inactive) | 63 µM (inactive) | 
CC1(C)OCC2OC3([C@H](O)CCO)OC(C)(C)OC3C2O1 (some centres undefined) | > 100 µM (inactive) | > 100 µM (inactive) | > 100 µM (inactive) |  |  | > 100 µM (inactive) | > 100 µM (inactive) | > 100 µM (inactive) | > 100 µM (inactive) | > 100 µM (inactive) | > 100 µM (inactive) | > 100 µM (inactive) | > 100 µM (inactive) | > 100 µM (inactive) | > 100 µM (inactive) | > 100 µM (inactive) |  | > 100 µM (inactive) | > 100 µM (inactive)
Cc1n[nH]c(=O)n1N1C(=O)CCCC1=O | > 100 µM (inactive) | > 100 µM (inactive) | > 100 µM (inactive) | > 100 µM (inactive) | > 100 µM (inactive) | > 100 µM (inactive) | > 100 µM (inactive) | > 100 µM (inactive) | > 100 µM (inactive) |  | > 100 µM (inactive) | > 100 µM (inactive) |  | > 100 µM (inactive) | > 100 µM (inactive) |  | > 100 µM (inactive) | 63.4 µM (inactive) | 
N=C(Cc1ccccc1)NCC(=O)O | > 100 µM (inactive) | > 100 µM (inactive) | > 100 µM (inactive) | > 100 µM (inactive) | > 100 µM (inactive) | > 100 µM (inactive) | > 100 µM (inactive) | > 100 µM (inactive) | > 100 µM (inactive) | > 100 µM (inactive) | > 100 µM (inactive) | > 100 µM (inactive) | > 100 µM (inactive) | > 100 µM (inactive) | > 100 µM (inactive) | > 100 µM (inactive) | > 100 µM (inactive) | > 100 µM (inactive) | 
c1ccc2sc(C3(N4CCCC4)CCCCCC3)cc2c1 | 21.4 µM (inactive) | 22.4 µM (inactive) | 14 µM (inactive) | 18.7 µM (inactive) |  |  | 20.9 µM (inactive) | 11.7 µM (inactive) | 19.1 µM (inactive) | 12.6 µM (inactive) | 14.3 µM (inactive) | 12.5 µM (inactive) | 20.4 µM (inactive) | 16.6 µM (inactive) | 15.7 µM (inactive) | 14 µM (inactive) |  | 17.2 µM (inactive) | 18.8 µM (inactive)
CC1(C)S[C@@H]2[C@H](NC(=O)[C@H](N)c3ccccc3)C(=O)N2[C@H]1C(=O)O [AMPICILLIN] | > 100 µM (inactive) | > 100 µM (inactive) | > 100 µM (inactive) | 40.1 µM (inactive) | 63.8 µM (inactive) | > 100 µM (inactive) | > 100 µM (inactive) | > 100 µM (inactive) | > 100 µM (inactive) | > 100 µM (inactive) | > 100 µM (inactive) | > 100 µM (inactive) | > 100 µM (inactive) |  |  | > 100 µM (inactive) |  |  | > 100 µM (inactive)
CC12CC(C/C1=N/O)C(C)(C)C2 (centres undefined) | > 100 µM (inactive) | > 100 µM (inactive) | > 100 µM (inactive) | > 100 µM (inactive) | > 100 µM (inactive) |  | > 100 µM (inactive) | > 100 µM (inactive) | > 100 µM (inactive) | > 100 µM (inactive) | > 100 µM (inactive) | > 100 µM (inactive) | > 100 µM (inactive) | > 100 µM (inactive) | > 100 µM (inactive) | > 100 µM (inactive) | > 100 µM (inactive) | > 100 µM (inactive) | 
